Results taken from patent US20180116983A1, “COMPOUNDS FOR TREATING DISORDERS ASSOCIATED WITH BK CHANNEL MODULATION” (Canbex Therapeutics Limited, priority 2015, published 2018).
Entries after “also recorded” stand apart in the source; their conditions may differ.

What was measured:
[1] = system: C57BL/6.Fmr1 knockout mice; experiment: Marble burying in Fmr1 knockout mice; type: in vivo, mouse; settings: 2 mg/kg i.v., 30 min
Experimental: (§1) Animals: C57BL/6.J. Fmr1-K02 mice, which have a deletion of the promoter and exonl of the Fmr1 gene (Mientjes et al., 2006) and C57BL/6J wild type (WT) were originated from the Jackson laboratory (Ann Harbor, USA). Mice were housed in groups (4-6 per cage) and all animals were provided with ad libitum food and water unless otherwise stated. Mice were maintained on a 12 h light/12 h dark cycle (lights off 19:00 to 7:00) in a temperature-controlled environment (21±1° C.). Testing was conducted in the light phase. Mice were housed in commercial cages and experiments were performed in line with the United Kingdom Animals (Scientific procedures) Act 1986. […]
(§2) Drug Treatment: VSN16R was dissolved in saline for injection intravenously via a tail vein using 2 mg/kg a 30 g needle in a volume of 0.1 ml. […] The eye condition (runny eyes or porphyria, ptosis), gait appearance, tremor, tail tone, reactivity to handling was assessed to detect adverse behavioural effect.
Marble burying: Mice will dig as part of their typical behaviours and this was detected using transparent plastic cages were filled with a 10 cm deep layer of sawdust on top of which 10 glass marbles were placed in two rows. Each animal was left undisturbed in such a cage for 30 min, after which the number of marbles that were buried to at least ⅔ of their depth was recorded. […]

mouse vas deferens = experiment: βγ-methylene ATP-induced contraction of mouse vas deferens; settings: 100 nM; electrically unstimulated vasa deferentia
Experimental: Mouse vas deferens were treated with either DMSO vehicle or 100 nM VSN16R 30 min before the first organ bath injection of various concentrations of βγ-methylene ATP into the organ bath (FIG. 16). The results represent the mean±SEM of βγ-methylene ATP-induced increases in tension (expressed in grams) of electrically unstimulated vasa deferentia. (n=6/group).

rat mesenteric arteries = experiment: Vasodilation in rat mesenteric arteries (wire myograph)
Experimental: Rats were stunned by a blow to the back of their neck and killed by cervical dislocation in compliance with schedule 1 of the UK Animals (Scientific Procedures) Act 1986.
Segments (2 mm in length) were mounted in a Mulvany-Halpern type wire myograph (Model 610M; Danish Myo Technology, Aarhus, Denmark) and maintained at 37° C. in gassed (95% O2/5% CO2) Krebs-Henseleit solution of the following composition (mM): NaCl 118, KCl 4.7, MgSO4 1.2, KH2PO4 1.2, NaHCO, 25, CaCl2 2, D-glucose 10 as previously described (Ho and Randall, 2007). Arteries were equilibrated and set to a basal tension of 2-2.5 mN. The integrity of the endothelium was assessed by precontracting the vessel with 10 μM methoxamine (an α1-adrenoceptor agonist), followed by relaxation with 10 μM carbachol (a muscarinic acetylcholine receptor agonist); vessels showing relaxations of greater than 90% were designated as endothelium-intact. When endothelium was not required, it was removed by rubbing the intima with a human hair; carbachol-induced relaxation of less than 10% indicated successful removal. After the test for endothelial integrity, arteries were left for 30 min and then precontracted with 10 μM methoxamine (or 60 mM KCl), this was followed by construction of a cumulative concentration-relaxation curve to VSN16R (10 nM-1 μM). Most experiments were performed in matched vessels; effects of putative modulators or endothelial removal were compared with the control responses obtained in separate vessels of the same rat. Potential modulators were added to the myograph bath 30 min before measurement, and kept present during, construction of the concentration-relaxation curve.

[2] = system: C57BL/6.Fmr1 knockout mice; experiment: Open field test in Fmr1 knockout mice; type: in vivo, mouse; settings: 2 mg/kg i.v.
Experimental: as §1, §2
Open field: The open field apparatus was used to test multiple processes including anxiety/hyperactivity and habituation to a novel environment, in which decreased exploration as a function of repeated exposure to the same environment is taken as an index of memory. […] The number of squares entered (whole body) (locomotor activity) and rears (both front paws off the ground, but not as part of grooming) were counted. […]

mesenteric arteries = settings: cited from earlier work

## C[C@H](CO)NC(=O)c1cccc(/C=C\CCCC(=O)N(C)C)c1 [VSN16R]
[1]
  digging behaviour (marbles buried): inhibits the development of Exaggerated Digging Behaviours; also recorded: significantly (P<0.001) limited the exaggerated behaviour
Mouse vas deferens
  effect on βγ-methylene ATP-induced contraction: does not affect
Rat mesenteric arteries; 50 nM charybdotoxin
  relaxation of rat mesenteric arteries in the presence of charybdotoxin: inhibited by antagonists of BKCa channels
Rat mesenteric arteries; 50 nM iberotoxin
  relaxation of rat mesenteric arteries in the presence of iberotoxin: blocked by iberotoxin; also recorded: can be inhibited by the specific BK channel blocker iberiotoxin; also recorded: inhibited by antagonists of BKCa channels
Rat mesenteric arteries; FIG. 9, reduction of endothelial tone
  activation of calcium activated potassium channels in arterial vasodilation assay: activates calcium activated potassium channels
Rat mesenteric arteries; apamin alone
  relaxation of rat mesenteric arteries in the presence of apamin alone: non-significant blockade
Rat mesenteric arteries; combination of apamin and charybdotoxin
  relaxation of rat mesenteric arteries in the presence of apamin and charybdotoxin: blocked
Rat mesenteric arteries; extracellular 60 mM KCl
  relaxation of rat mesenteric arteries in the presence of 60 mM KCl: inhibiting VSN16R activity; also recorded: produced no relaxation
Rat mesenteric arteries; pre-contracted with methoxamine, endothelium intact vs denuded
  relaxation of rat mesenteric arteries: relaxed; also recorded: can induce vasorelaxation in an endothelium-dependent (P<0.001) manner
[2]; Fmr1 knockout mice, baseline, 10 min, 24 h, 2 mg/kg
  open field activity (hyperactivity, memory): inhibits the hyperactivity and memory deficient; also recorded: movement behaviours were comparable to that observed in wildtype mice; also recorded: normalise the memory and exploratory behaviours to the level of wildtype mice
[2]; wildtype mice
  open field activity: exhibit comparable movement behaviour to vehicle-treated wildtype mice
Mesenteric arteries
  action on smooth muscle carrying the β1 subunit: does not act on smooth muscle
